Experimental data: ChEMBL document CHEMBL4007454 (J Med Chem, 2017); call rule not given here
Values after ≈ are worked out from the molar mass of the structure shown.

Columns and labels:
[1] = Intrinsic clearance in human hepatocytes assessed per million cells at 1 uM after 180 mins by LC-MS/MS analysis; type: ADME, cell-based, Hepatocyte; settings: read-out: CLH
[2] = Intrinsic clearance in rat hepatocytes assessed per million cells at 1 uM after 180 mins by LC-MS/MS analysis; type: ADME, cell-based, Hepatocyte; settings: read-out: CLH
[3] = AUC (0 to 8 hrs) in Han-Wistar rat at 2 mg/kg, iv measured after 2 to 480 mins by LC-MS/MS analysis; type: ADME, organism-based; parameters: time < 8 hr, dose 2 mg/kg, route intravenous; settings: in vivo
[4] = Initial concentration in Han-Wistar rat at 2 mg/kg, iv measured after 2 to 480 mins by LC-MS/MS analysis; type: ADME, organism-based; settings: in vivo
[5] = Half life in Han-Wistar rat at 2 mg/kg, iv measured after 2 to 480 mins by LC-MS/MS analysis; type: ADME, organism-based; settings: in vivo
[6] = MRT in Han-Wistar rat at 2 mg/kg, iv measured after 2 to 480 mins by LC-MS/MS analysis; type: ADME, organism-based; settings: in vivo
[7] = Clearance in Han-Wistar rat at 2 mg/kg, iv measured after 2 to 480 mins by LC-MS/MS analysis; type: ADME, organism-based; settings: in vivo
[8] = AUC (0 to 8 hrs) in Han-Wistar rat at 10 mg/kg, po measured after 15 to 480 mins by LC-MS/MS analysis; type: ADME, organism-based; parameters: dose 10 mg/kg, time < 8 hr, route oral; settings: in vivo
[9] = Cmax in Han-Wistar rat at 10 mg/kg, po measured after 15 to 480 mins by LC-MS/MS analysis; type: ADME, organism-based; settings: in vivo, read-out: C0
[10] = Tmax in Han-Wistar rat at 10 mg/kg, po measured after 15 to 480 mins by LC-MS/MS analysis; type: ADME, organism-based; settings: in vivo
[11] = MRT in Han-Wistar rat at 10 mg/kg, po measured after 15 to 480 mins by LC-MS/MS analysis; type: ADME, organism-based; settings: in vivo
[12] = Oral bioavailability in Han-Wistar rat at 10 mg/kg, measured after 15 to 480 mins by LC-MS/MS analysis; type: ADME, organism-based; settings: in vivo
[13] = Fraction unbound in rat plasma at 10 uM after 4 hrs by rapid equilibrium dialysis method; type: ADME, cell-free
Cytochrome P450 2D6 = Cytochrome P450 2D6 (Homo sapiens, UniProt P10635); test: Inhibition of human CYP2D6; type: ADME
Cytochrome P450 2C9 = Cytochrome P450 2C9 (Homo sapiens, UniProt P11712); test: Inhibition of human CYP2C9; type: ADME
Cytochrome P450 3A4 [14] = molecular target: T1, Cytochrome P450 3A4 (Homo sapiens, UniProt P08684); test: Inhibition of human CYP3A4; type: ADME
Cytochrome P450 3A4 [15] = molecular target: T1, Cytochrome P450 3A4; test: Time dependent inhibition of human CYP3A4; type: ADME
Mus musculus [16] = test: In vivo inhibition of LRRK2 Ser935 phosphorylation in mouse brain cortex assessed as reduction in ratio of phosphorylated Ser935 to total LRRK2 protein at =>10 mg/kg, po administered 1 hr prior to euthanasia measured by Western blot analysis; type: functional
Rattus norvegicus [17] = test: In vivo inhibition of LRRK2 Ser935 phosphorylation in CD rat brain cortex assessed as reduction in ratio of phosphorylated Ser935 to total LRRK2 protein at => 30 mg/kg, po administered 1 hr post treatment by Western blot analysis; type: functional
Rattus norvegicus [18] = test: In vivo inhibition of LRRK2 Ser935 phosphorylation in CD rat brain cortex assessed as unbound brain concentration causing reduction in ratio of phosphorylated Ser935 to total LRRK2 protein at 1 to 100 mg/kg, po administered 1 hr post treatment by Western blot analysis; type: functional
Rattus norvegicus [19] = test: In vivo inhibition of LRRK2 Ser935 phosphorylation in CD rat brain cortex assessed as unbound plasma concentration causing reduction in ratio of phosphorylated Ser935 to total LRRK2 protein at 1 to 100 mg/kg, po administered 1 hr post treatment by Western blot analysis; type: functional
Mus musculus [20] = test: In vivo inhibition of LRRK2 Ser935 phosphorylation in mouse brain assessed as unbound brain concentration causing reduction in ratio of phosphorylated Ser935 to total LRRK2 protein at 1 to 100 mg/kg, po administered 1 hr post treatment by Western blot analysis; type: functional, organism-based
Mus musculus [21] = test: In vivo inhibition of LRRK2 Ser935 phosphorylation in mouse brain assessed as unbound plasma concentration causing reduction in ratio of phosphorylated Ser935 to total LRRK2 protein at 1 to 100 mg/kg, po administered 1 hr post treatment by Western blot analysis; type: functional, organism-based
[22] = Equilibrium solubility in Water after 24 hrs by HPLC method; type: physicochemical
[23] = Equilibrium solubility in simulated gastric fluid after 24 hrs by HPLC method; type: physicochemical
[24] = Equilibrium solubility in fasted state simulated intestinal fluid after 24 hrs by HPLC method; type: physicochemical
[25] = Equilibrium solubility in pH 6.5 Phosphate buffer after 24 hrs by HPLC method; type: physicochemical
[26] = Equilibrium solubility in fed state simulated intestinal fluid after 24 hrs by HPLC method; type: physicochemical
[27] = Equilibrium solubility in pH 5 acetate buffer after 24 hrs by HPLC method; type: physicochemical

T1 sequence (P08684 whole entry): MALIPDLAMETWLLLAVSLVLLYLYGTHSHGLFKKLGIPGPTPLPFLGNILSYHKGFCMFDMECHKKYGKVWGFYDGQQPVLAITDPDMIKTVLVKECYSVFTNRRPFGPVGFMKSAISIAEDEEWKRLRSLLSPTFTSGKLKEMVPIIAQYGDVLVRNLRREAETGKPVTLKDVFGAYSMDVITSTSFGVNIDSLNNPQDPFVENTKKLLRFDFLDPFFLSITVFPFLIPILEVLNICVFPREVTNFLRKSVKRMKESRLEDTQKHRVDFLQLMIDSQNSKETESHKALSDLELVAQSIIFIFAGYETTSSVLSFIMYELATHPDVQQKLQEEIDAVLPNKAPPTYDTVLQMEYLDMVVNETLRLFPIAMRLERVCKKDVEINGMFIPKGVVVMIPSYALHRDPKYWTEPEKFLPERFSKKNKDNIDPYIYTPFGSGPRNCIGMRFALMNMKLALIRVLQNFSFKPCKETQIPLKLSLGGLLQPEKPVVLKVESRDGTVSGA
Cytochrome P450 2C9, sequence (P11712 whole entry): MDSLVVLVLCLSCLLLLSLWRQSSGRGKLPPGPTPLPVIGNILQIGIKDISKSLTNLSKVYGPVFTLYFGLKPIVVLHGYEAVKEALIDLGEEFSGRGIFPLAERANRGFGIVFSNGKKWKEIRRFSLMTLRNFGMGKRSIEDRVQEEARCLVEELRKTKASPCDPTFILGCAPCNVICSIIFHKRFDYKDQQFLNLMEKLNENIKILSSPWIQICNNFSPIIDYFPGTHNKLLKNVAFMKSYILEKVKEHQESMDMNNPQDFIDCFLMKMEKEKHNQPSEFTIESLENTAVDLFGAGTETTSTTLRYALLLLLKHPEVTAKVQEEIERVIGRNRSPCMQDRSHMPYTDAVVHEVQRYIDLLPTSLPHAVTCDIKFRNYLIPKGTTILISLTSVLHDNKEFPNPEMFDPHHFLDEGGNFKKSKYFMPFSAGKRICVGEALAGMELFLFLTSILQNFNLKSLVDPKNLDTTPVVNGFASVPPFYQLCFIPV
Cytochrome P450 2D6, sequence (P10635 whole entry): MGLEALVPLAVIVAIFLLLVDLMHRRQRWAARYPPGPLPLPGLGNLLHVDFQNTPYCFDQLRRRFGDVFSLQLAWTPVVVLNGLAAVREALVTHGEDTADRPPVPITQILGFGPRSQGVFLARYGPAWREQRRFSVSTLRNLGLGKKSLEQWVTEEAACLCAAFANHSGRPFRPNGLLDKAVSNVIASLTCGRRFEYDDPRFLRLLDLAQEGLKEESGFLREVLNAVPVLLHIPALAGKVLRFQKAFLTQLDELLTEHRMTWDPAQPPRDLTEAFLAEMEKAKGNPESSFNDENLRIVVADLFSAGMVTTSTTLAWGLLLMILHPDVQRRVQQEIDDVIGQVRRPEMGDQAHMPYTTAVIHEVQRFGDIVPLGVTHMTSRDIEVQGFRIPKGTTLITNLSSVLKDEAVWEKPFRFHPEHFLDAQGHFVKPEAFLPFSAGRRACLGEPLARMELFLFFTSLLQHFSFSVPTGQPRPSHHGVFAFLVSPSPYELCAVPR

SMILES: C[C@@H]1CN(c2cc(-c3n[nH]c4ccc(OC5(C)CC5)cc34)ncn2)C[C@H](C)O1 [MLi-2]
- hepatocyte CLint at 1 µM [1]: 8 µL/min/1e6 cells
- hepatocyte CLint at 1 µM [2]: 15 µL/min/1e6 cells
- AUC(0-t) at 8 h [3]: 660 nM·h
- C0 [4]: 1.17 µM
- half-life [5]: 1.8 h
- MRT [6]: 1.7 h
- clearance [7]: 9.18 L/h/kg
- AUC(0-t) at 8 h [8]: 1300 nM·h
- Cmax [9]: 0.48 µM
- Tmax [10]: 1.3 h
- MRT [11]: 4 h
- bioavailability [12]: 39%
- fraction unbound at 4 h, 10 µM [13]: 0.012
- IC50 (Cytochrome P450 2D6): > 50000 nM
- IC50 (Cytochrome P450 2C9): > 50000 nM
- IC50 (Cytochrome P450 3A4 [14]): > 50000 nM
- TDI (Cytochrome P450 3A4 [15]): Not Active
- inhibition (INH) (Mus musculus [16]): >90%
- inhibition (INH) (Rattus norvegicus [17]): >90%
- fIC50 (Rattus norvegicus [18]): 0.18 nM
- fIC50 (Rattus norvegicus [19]): 0.2 nM
- IC50 (Mus musculus [20]): 0.8 nM
- IC50 (Mus musculus [21]): 1.1 nM
- solubility thermodynamic at 24 h [22]: 0.014 to 0.038 mg/mL (≈ 36.9 to 100 µM)
- solubility thermodynamic at 24 h [23]: 0.014 to 0.038 mg/mL (≈ 36.9 to 100 µM)
- solubility thermodynamic at 24 h [24]: 0.014 to 0.038 mg/mL (≈ 36.9 to 100 µM)
- solubility thermodynamic at 24 h [25]: 0.014 to 0.038 mg/mL (≈ 36.9 to 100 µM)
- solubility thermodynamic at 24 h [26]: 0.014 to 0.038 mg/mL (≈ 36.9 to 100 µM)
- solubility thermodynamic at 24 h [27]: 0.014 to 0.038 mg/mL (≈ 36.9 to 100 µM)
